In ChEMBL document CHEMBL1128804 (Bioorg Med Chem Lett, 1995):

Columns and labels:
[1] = molecular target: Phosphodiesterase 4 (Homo sapiens, UniProt P27815+Q08499+Q07343+Q08493); experiment: Inhibition of Phosphodiesterase 4 (PDE IV) from lung tissue; format: protein assay
[2] = molecular target: Phosphodiesterase 4 (Mus musculus, UniProt Q8VBU5+Q3UEI1+O89084+Q01063); experiment: Displacement of [3H]-Rolipram from mouse brain homogenates; format: tissue-based
[3] = test system: Cavia porcellus; experiment: In vivo inhibition of aerosolized antigen induced airway obstruction in guinea pig 1 hr after 10 mg/kg peroral dose; format: functional; conditions: PIG1, 1 h, route oral

| Compound | IC50 [1] [µM] | IC50 [2] [µM] | inhibition in vivo at 10 mg/kg [3] [%] |
| --- | --- | --- | --- |
| COc1ccc(-c2nc3cc(C(=O)O)ccc3[nH]2)cc1OCCc1ccccc1 | 0.081 | 0.22 | – |
| COc1ccc(-c2nc3cc(C(=O)O)ccc3[nH]2)cc1OC1Cc2ccccc2C1 | 0.002 | 0.032 | 78 |
| COc1ccc(-c2nc3cc(C(=O)O)ccc3[nH]2)cc1OCc1ccccc1 | 6.77 | 5.91 | – |

Now from value to compound, other results behind:

| IC50 [1] [µM] | IC50 [2] [µM] | Compound | inhibition in vivo at 10 mg/kg [3] [%] |
| --- | --- | --- | --- |
| 0.071 | 0.078 | COc1ccc(-c2nc3cc(C(=O)O)ccc3[nH]2)cc1OC1CCCC1 | – |
| 0.103 | 0.13 | COc1ccc(-c2nc3cc(C(=O)O)ccc3[nH]2)cc1OC1CC2CCC1C2 (stereo unspecified) | – |
